Test results reported in PubChem BioAssay AID1745844 (Carcinogenic Potency Database (CPDB), 2022).
Values joined by “and” are separate entries in the source; they are usually repeats but may differ in a detail not shown here. Identical values can stand only once. Active and inactive are the calls of the source. How the calls were made is not given here.

Test system: rodent lifetime carcinogenesis bioassay, tumor incidence TD50
Assay: chronic cancer bioassays in animals – CPDB, compiled studies (AID 1745844)

Compound `ClCC=CCCl` has a TD50 (rat, strain Charles River CD (Sprague-Dawley), females, inhaled, site: nasal cavity, lesion: adenoma, dosed 51 weeks, study length 104 weeks) of 13 mg/kg/day, a TD50 (rat, strain Charles River CD (Sprague-Dawley), females, inhaled, site: nasal cavity, lesion: adenoma, dosed 104 weeks, study length 104 weeks) of 0.695 mg/kg/day and a TD50 (rat, strain Charles River CD (Sprague-Dawley), females, inhaled, site: nasal cavity, lesion: malignant tumor, dosed 51 weeks, study length 104 weeks) of 0.242 mg/kg/day. The TD50 (rat, strain Charles River CD (Sprague-Dawley), females, inhaled, site: nasal cavity, lesion: malignant tumor, dosed 104 weeks, study length 104 weeks) was 8.32 mg/kg/day, the TD50 (rat, strain Charles River CD (Sprague-Dawley), males, inhaled, site: nasal cavity, olfactory epithelium, lesion: adenocarcinoma, dosed 82 weeks, study length 104 weeks) was 2 mg/kg/day and the TD50 (rat, strain Charles River CD (Sprague-Dawley), males, inhaled, site: nasal cavity, olfactory epithelium, lesion: carcinoma, dosed 82 weeks, study length 104 weeks) was 8.88 mg/kg/day. It also gave a TD50 (rat, strain Charles River CD (Sprague-Dawley), males, inhaled, site: nasal cavity, olfactory epithelium, lesion: carcinosarcoma, dosed 82 weeks, study length 104 weeks) of 8.88 mg/kg/day, a TD50 (rat, strain Charles River CD (Sprague-Dawley), males, inhaled, site: nasal cavity, olfactory epithelium, lesion: malignant tumor, dosed 82 weeks, study length 104 weeks) of 1.27 mg/kg/day and a TD50 (rat, strain Charles River CD (Sprague-Dawley), males, inhaled, site: nasal cavity, respiratory epithelium, lesion: adenoma, dosed 82 weeks, study length 104 weeks) of 0.653 mg/kg/day. The TD50 (rat, strain Charles River CD (Sprague-Dawley), males, inhaled, site: nasal cavity, lesion: adenoma, dosed 51 weeks, study length 104 weeks) was 23.2 mg/kg/day, the TD50 (rat, strain Charles River CD (Sprague-Dawley), males, inhaled, site: nasal cavity, lesion: adenoma, dosed 104 weeks, study length 104 weeks) was 0.313 mg/kg/day and the TD50 (rat, strain Charles River CD (Sprague-Dawley), males, inhaled, site: nasal cavity, lesion: malignant tumor, dosed 51 weeks, study length 104 weeks) was 0.169 mg/kg/day. For the same compound, the TD50 (rat, strain Charles River CD (Sprague-Dawley), males, inhaled, site: nasal cavity, lesion: malignant tumor, dosed 104 weeks, study length 104 weeks) was 1.04 mg/kg/day and the TD50 (rat, strain Charles River CD (Sprague-Dawley), males, inhaled, site: nasal cavity, lesion: several types, types named in the paper, dosed 82 weeks, study length 104 weeks) was 0.467 mg/kg/day.

`CC(=O)NNc1ccccc1` showed a TD50 (mouse, strain Swiss albino, females, in drinking water, site: blood vessels, lesion: angioma, dosed 111 weeks, study length 111 weeks) of 117 mg/kg/day, a TD50 (mouse, strain Swiss albino, females, in drinking water, site: blood vessels, lesion: angiosarcoma, dosed 111 weeks, study length 111 weeks) of 117 mg/kg/day and a TD50 (mouse, strain Swiss albino, females, in drinking water, site: blood vessels, lesion: several types, types named in the paper, dosed 111 weeks, study length 111 weeks) of 49 mg/kg/day. For the same compound, the TD50 (mouse, strain Swiss albino, females, in drinking water, site: liver, lesion: angioma, dosed 111 weeks, study length 111 weeks) was 105 mg/kg/day, the TD50 (mouse, strain Swiss albino, females, in drinking water, site: liver, lesion: angiosarcoma, dosed 111 weeks, study length 111 weeks) was 105 mg/kg/day and the TD50 (mouse, strain Swiss albino, females, in drinking water, site: liver, lesion: several types, types named in the paper, dosed 111 weeks, study length 111 weeks) was 44.8 mg/kg/day. The TD50 (mouse, strain Swiss albino, females, in drinking water, site: lung, lesion: adenoma, dosed 111 weeks, study length 111 weeks) was 413 mg/kg/day (inactive), the TD50 (mouse, strain Swiss albino, males, in drinking water, site: blood vessels, lesion: angioma, dosed 106 weeks, study length 106 weeks) was 113 mg/kg/day and the TD50 (mouse, strain Swiss albino, males, in drinking water, site: blood vessels, lesion: angiosarcoma, dosed 106 weeks, study length 106 weeks) was 161 mg/kg/day. For the same compound, the TD50 (mouse, strain Swiss albino, males, in drinking water, site: blood vessels, lesion: several types, types named in the paper, dosed 106 weeks, study length 106 weeks) was 59.8 mg/kg/day, the TD50 (mouse, strain Swiss albino, males, in drinking water, site: liver, lesion: angioma, dosed 106 weeks, study length 106 weeks) was 128 mg/kg/day and the TD50 (mouse, strain Swiss albino, males, in drinking water, site: liver, lesion: angiosarcoma, dosed 106 weeks, study length 106 weeks) was 146 mg/kg/day. The TD50 (mouse, strain Swiss albino, males, in drinking water, site: liver, lesion: several types, types named in the paper, dosed 106 weeks, study length 106 weeks) was 62.1 mg/kg/day, the carcinogen call (mouse, strain Swiss albino, males, in drinking water, site: lung, lesion: adenocarcinoma, dosed 106 weeks, study length 106 weeks) was “negative (inactive)” and the carcinogen call (mouse, strain Swiss albino, males, in drinking water, site: lung, lesion: adenoma, dosed 106 weeks, study length 106 weeks) was “negative (inactive)”.

`C=C1C(CCl)(CCl)C2(Cl)C(Cl)C(Cl)C1(Cl)C2(Cl)Cl` (stereo not given) was tested, and the TD50 (mouse, strain B6C3F1, females, in feed, site: liver, lesion: hepatocellular adenoma, dosed 78 weeks, study length 104 weeks) was 91.6 mg/kg/day, the TD50 (mouse, strain B6C3F1, females, in feed, site: liver, lesion: hepatocellular adenoma, dosed 80 weeks, study length 90 weeks) was 11.4 mg/kg/day and 11.6 mg/kg/day and the TD50 (mouse, strain B6C3F1, females, in feed, site: liver, lesion: hepatocellular carcinoma, dosed 78 weeks, study length 104 weeks) was 66.2 mg/kg/day. For the same compound, the TD50 (mouse, strain B6C3F1, females, in feed, site: liver, lesion: hepatocellular carcinoma, dosed 80 weeks, study length 90 weeks) was 273 mg/kg/day, the TD50 (mouse, strain B6C3F1, females, in feed, site: liver, lesion: several types, pooled by NCI/NTP, dosed 80 weeks, study length 90 weeks) was 10.6 mg/kg/day and 10.8 mg/kg/day and the TD50 (mouse, strain B6C3F1, females, in feed, site: liver, lesion: several types, types named in the paper, dosed 78 weeks, study length 104 weeks) was 37 mg/kg/day. For the same compound, the TD50 (mouse, strain B6C3F1, males, in feed, site: liver, lesion: hepatocellular adenoma, dosed 78 weeks, study length 104 weeks) was 21.2 mg/kg/day, the TD50 (mouse, strain B6C3F1, males, in feed, site: liver, lesion: hepatocellular adenoma, dosed 80 weeks, study length 90 weeks) was 6.12 mg/kg/day and 5.76 mg/kg/day and the TD50 (mouse, strain B6C3F1, males, in feed, site: liver, lesion: hepatocellular carcinoma, dosed 78 weeks, study length 104 weeks) was 27.5 mg/kg/day. The TD50 (mouse, strain B6C3F1, males, in feed, site: liver, lesion: hepatocellular carcinoma, dosed 80 weeks, study length 90 weeks) was 248 mg/kg/day and 168 mg/kg/day, the TD50 (mouse, strain B6C3F1, males, in feed, site: liver, lesion: several types, pooled by NCI/NTP, dosed 80 weeks, study length 90 weeks) was 4.2 mg/kg/day and 4.08 mg/kg/day and the TD50 (mouse, strain B6C3F1, males, in feed, site: liver, lesion: several types, types named in the paper, dosed 78 weeks, study length 104 weeks) was 13.6 mg/kg/day. It also gave a TD50 (rat, strain Osborne-Mendel, females, in feed, site: any site (literature study), lesion: several types, types named in the paper, dosed 80 weeks, study length 108 weeks) of 596 mg/kg/day, a TD50 (rat, strain Osborne-Mendel, females, in feed, site: thyroid gland, lesion: follicular-cell adenoma, dosed 80 weeks, study length 108 weeks) of 209 mg/kg/day and a TD50 (rat, strain Osborne-Mendel, males, in feed, site: any site (literature study), lesion: several types, types named in the paper, dosed 80 weeks, study length 108 weeks) of 1020 mg/kg/day. The TD50 (rat, strain Osborne-Mendel, males, in feed, site: liver, lesion: hepatocellular adenoma + hepatocellular carcinoma + neoplastic nodule, dosed 80 weeks, study length 108 weeks) was 949 mg/kg/day, the TD50 (rat, strain Osborne-Mendel, males, in feed, site: liver, lesion: neoplastic nodule, dosed 80 weeks, study length 108 weeks) was 92.1 mg/kg/day and the TD50 (rat, strain Osborne-Mendel, males, in feed, site: thyroid gland, lesion: follicular-cell adenoma + follicular-cell carcinoma, dosed 80 weeks, study length 108 weeks) was 58.9 mg/kg/day.

In the case of `C=C1CC[C@H](O)C/C1=C/C=C1\CCC[C@]2(C)[C@@H]([C@H](C)CC[C@@H](O)C(C)(C)O)CC[C@@H]12`, the TD50 (rat, strain Slc-Wistar, males, in feed, site: adrenal medulla, lesion: pheochromocytoma, dosed 57 weeks, study length 57 weeks) is reported as 0.803 mg/kg/day and the carcinogen call (rat, strain Slc-Wistar, males, in feed, site: stomach, glandular, lesion: adenocarcinoma, dosed 57 weeks, study length 57 weeks) is reported as “negative (inactive)”.

`ClCOCc1ccc(COCCl)cc1` showed a TD50 (mouse, strain Ha/ICR, females, i.p., site: abdomen, lesion: sarcoma, dosed 77 weeks, study length 77 weeks) of 3.11 mg/kg/day.

Compound `CN(CCCC(O)c1cccnc1)N=O` (stereo not given) has a TD50 (rat, strain Fischer 344, males, in drinking water, site: adrenal medulla, lesion: one or several types, types not named, dosed 112 weeks, study length 112 weeks) of 1.39 mg/kg/day, a TD50 (rat, strain Fischer 344, males, in drinking water, site: liver, lesion: hepatoma, dosed 112 weeks, study length 112 weeks) of 5.86 mg/kg/day and a TD50 (rat, strain Fischer 344, males, in drinking water, site: liver, lesion: several types, types named in the paper, dosed 112 weeks, study length 112 weeks) of 7.25 mg/kg/day. The TD50 (rat, strain Fischer 344, males, in drinking water, site: lung, lesion: adenocarcinoma, dosed 112 weeks, study length 112 weeks) was 0.409 mg/kg/day, the TD50 (rat, strain Fischer 344, males, in drinking water, site: lung, lesion: adenoma, dosed 112 weeks, study length 112 weeks) was 1.38 mg/kg/day and the TD50 (rat, strain Fischer 344, males, in drinking water, site: lung, lesion: adenosquamous carcinoma, dosed 112 weeks, study length 112 weeks) was 0.577 mg/kg/day. For the same compound, the TD50 (rat, strain Fischer 344, males, in drinking water, site: lung, lesion: several types, types named in the paper, dosed 112 weeks, study length 112 weeks) was 0.103 mg/kg/day, the TD50 (rat, strain Fischer 344, males, in drinking water, site: pancreas, exocrine, lesion: acinar-cell adenoma, dosed 112 weeks, study length 112 weeks) was 2.14 mg/kg/day and the TD50 (rat, strain Fischer 344, males, in drinking water, site: pancreas, exocrine, lesion: adenocarcinoma, acinar or ductal, dosed 112 weeks, study length 112 weeks) was 1.09 mg/kg/day. For the same compound, the TD50 (rat, strain Fischer 344, males, in drinking water, site: pancreas, exocrine, lesion: several types, types named in the paper, dosed 112 weeks, study length 112 weeks) was 0.668 mg/kg/day.

For `CC1CN(N=O)CC(C)O1` (stereo not given), the TD50 (hamster, strain Syrian Golden, females, by gavage, site: any site (literature study), lesion: several types, types named in the paper, dosed 59 weeks, study length 83 weeks) was 1.55 mg/kg/day, the TD50 (hamster, strain Syrian Golden, females, by gavage, site: forestomach, lesion: several types, types named in the paper, dosed 59 weeks, study length 83 weeks) was 9.45 mg/kg/day and the TD50 (hamster, strain Syrian Golden, females, by gavage, site: gall bladder, lesion: several types, types named in the paper, dosed 59 weeks, study length 83 weeks) was 12.9 mg/kg/day. The carcinogen call (hamster, strain Syrian Golden, females, by gavage, site: larynx, lesion: squamous-cell papilloma, dosed 59 weeks, study length 83 weeks) was “positive”, the TD50 (hamster, strain Syrian Golden, females, by gavage, site: liver, lesion: several types, types named in the paper, dosed 59 weeks, study length 83 weeks) was 11 mg/kg/day and the TD50 (hamster, strain Syrian Golden, females, by gavage, site: lung, lesion: several types, types named in the paper, dosed 59 weeks, study length 83 weeks) was 34.6 mg/kg/day. The TD50 (hamster, strain Syrian Golden, females, by gavage, site: pancreas, lesion: several types, types named in the paper, dosed 59 weeks, study length 83 weeks) was 5.75 mg/kg/day, the TD50 (hamster, strain Syrian Golden, females, by gavage, site: pancreatic duct, lesion: adenoma, dosed 59 weeks, study length 83 weeks) was 6.99 mg/kg/day and the TD50 (hamster, strain Syrian Golden, females, by gavage, site: pancreatic duct, lesion: carcinoma, dosed 59 weeks, study length 83 weeks) was 32.1 mg/kg/day. The TD50 (hamster, strain Syrian Golden, females, by gavage, site: several sites, sites named in the paper, lesion: several types, types named in the paper, dosed 59 weeks, study length 83 weeks) was 9.17 mg/kg/day and 16.9 mg/kg/day, the TD50 (hamster, strain Syrian Golden, females, by gavage, site: trachea, lesion: papillary polyp, dosed 59 weeks, study length 83 weeks) was 6.4 mg/kg/day and the TD50 (hamster, strain Syrian Golden, males, by gavage, site: any site (literature study), lesion: several types, types named in the paper, dosed 66 weeks, study length 87 weeks) was 1.68 mg/kg/day. It also gave a TD50 (hamster, strain Syrian Golden, males, by gavage, site: forestomach, lesion: several types, types named in the paper, dosed 66 weeks, study length 87 weeks) of 2.91 mg/kg/day, a TD50 (hamster, strain Syrian Golden, males, by gavage, site: larynx, lesion: squamous-cell papilloma, dosed 66 weeks, study length 87 weeks) of 27.3 mg/kg/day and a TD50 (hamster, strain Syrian Golden, males, by gavage, site: liver, lesion: several types, types named in the paper, dosed 66 weeks, study length 87 weeks) of 10.1 mg/kg/day. The TD50 (hamster, strain Syrian Golden, males, by gavage, site: lung, lesion: several types, types named in the paper, dosed 66 weeks, study length 87 weeks) was 1.21 mg/kg/day, the TD50 (hamster, strain Syrian Golden, males, by gavage, site: pancreas, lesion: several types, types named in the paper, dosed 66 weeks, study length 87 weeks) was 2.78 mg/kg/day and the TD50 (hamster, strain Syrian Golden, males, by gavage, site: pancreatic duct, lesion: adenoma, dosed 66 weeks, study length 87 weeks) was 21.2 mg/kg/day. It also gave a TD50 (hamster, strain Syrian Golden, males, by gavage, site: pancreatic duct, lesion: carcinoma, dosed 66 weeks, study length 87 weeks) of 6.67 mg/kg/day and a TD50 (hamster, strain Syrian Golden, males, by gavage, site: trachea, lesion: papillary polyp, dosed 66 weeks, study length 87 weeks) of 10.5 mg/kg/day.
